Assay [1] deals with T1, sodium taurocholate cotransporting polypeptide (NTCP) (Homo sapiens, UniProt Q14973).
T1 construct: gene SLC10A1; GFP-tagged human NTCP (NM_003049)
T1 sequence (Q14973 1-349): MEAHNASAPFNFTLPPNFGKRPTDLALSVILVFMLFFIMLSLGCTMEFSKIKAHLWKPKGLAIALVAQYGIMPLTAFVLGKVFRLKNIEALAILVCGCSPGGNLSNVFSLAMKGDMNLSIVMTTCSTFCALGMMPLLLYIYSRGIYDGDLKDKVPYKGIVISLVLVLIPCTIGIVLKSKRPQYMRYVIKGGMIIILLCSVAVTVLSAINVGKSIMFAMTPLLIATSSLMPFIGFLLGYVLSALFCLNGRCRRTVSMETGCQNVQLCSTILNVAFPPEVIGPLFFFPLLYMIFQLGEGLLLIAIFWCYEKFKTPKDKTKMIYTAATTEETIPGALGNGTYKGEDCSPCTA
Description: [3H]-taurocholate uptake inhibition in NTCP-GFP Flp-In T-REx […] cells (IC50 […] in differentiated HuH-7). The format is cell-based.

Assay [2] addresses T1, sodium taurocholate cotransporting polypeptide (NTCP). Description: [3H]-taurocholate uptake inhibition at […] in NTCP-GFP Flp-In T-REx […] and differentiated HuH-7 cells. The format is cell-based.

The term IC50 denotes the concentration needed to halve the response being measured. A high value points to weaker potency in that assay.

In turn, `CO[C@H]1C[C@@H]2CC[C@@H](C)[C@@](O)(O2)C(=O)C(=O)N2CCCC[C@H]2C(=O)O[C@H]([C@H](C)C[C@@H]2CC[C@@H](OCCO)[C@H](OC)C2)CC(=O)[C@H](C)/C=C(\C)[C@@H](O)[C@@H](OC)C(=O)[C@H](C)C[C@H](C)/C=C/C=C/C=C/1C` [everolimus] returned a half-maximal inhibitory concentration (IC50) in assay [1] of 6.7 ± 1.3 µM.
Regarding `CO[C@H]1C[C@@H]2CC[C@@H](C)[C@@](O)(O2)C(=O)C(=O)N2CCCC[C@H]2C(=O)O[C@H]([C@H](C)C[C@@H]2CC[C@@H](OC(=O)C(C)(CO)CO)[C@H](OC)C2)CC(=O)[C@H](C)/C=C(\C)[C@@H](O)[C@@H](OC)C(=O)[C@H](C)C[C@H](C)/C=C/C=C/C=C/1C` [temsirolimus], in assay [2], the “[3H]-taurocholate uptake inhibition at 10 μM in NTCP-GFP Flp-In T-REx 293 and di” value was “everolimus, sirolimus and temsirolimus significantly inhibited TCA accumulation in Na^+-containing ECF buffer and NTCP-mediated TCA accumulation”.

The values above are taken from PMC10073475, “Effect of mTOR inhibitors on sodium taurocholate cotransporting polypeptide (NTCP) function in vitro” (Frontiers in Pharmacology, 2023).
